Here are results for seven compounds from publication PMC6412374, “Engineering of Antimicrobial Surfaces by Using Temporin Analogs to Tune the Biocidal/antiadhesive Effect” (Molecules, 2019).

Usually MBC stands for the lowest tested concentration that kills the bacteria rather than only halting them. Usually MIC stands for the lowest concentration found to suppress growth.

Assay [1] has as its system Listeria ivanovii (Li4pVS2). In words: MBC, plating of MIC wells on agar. It is filed as cell-based. Conditions: free peptide in solution; MIC well and 4 wells above plated on agar, overnight; lowest concentration with at least 99.99% decrease; triplicate. The method, then:
(§1) Non-pathogenic bacteria Listeria ivanovii Li4pVS2 (Courtesy of Prof. J.-M. Berjeaud, Poitiers University, Poitiers, France) were used to investigate the antibacterial activity of the modified surfaces. Bacterial suspensions were prepared from frozen cultures incubated overnight (37 °C under agitation at 250 rpm) in brain heart infusion (BHI) broth (BD Difco, Franklin Lakes, NJ, USA). After centrifugation at 10,000× g for 5 min and elimination of the liquid phase (supernatant) the bacteria were redisposed in NaCl 0.9% solution up to a concentration of to 2 × 10^6 colony forming unity (CFU) per mL, verified by measuring the OD620nm = 0.02.
(§2) MIC values of temporin analogs were determined using a liquid growth inhibition assay. An exponential-phase bacterial culture of Listeria ivanovii was diluted in BHI broth to an OD of 0.02 (2 × 10^6 CFU/mL). A volume of 100 μL of this bacterial suspension was mixed with 100 μL of 2-fold serial aqueous dilutions of each temporin (final concentrations from 0.78 to 100 µM). The bacterial growth was monitored by measuring the OD change during overnight incubation. MIC and MBC tests were carried out in triplicate with positive (0.7% formaldehyde) and negative (saline NaCl 0.9% solution) controls. […] The bacterial suspension corresponding to the MIC well and 4 wells above MIC were collected and deposited on agar plate in order to determine the minimal bactericidal concentration (MBC). The MBC is expressed as the lowest concentration for which a decrease of at least 99.99% is observed on agar plates after overnight incubation.

Assay [2] deals with Listeria ivanovii (Li4pVS2). In words: MIC, liquid growth inhibition assay of free temporins in solution. It is filed as cell-based. As to conditions: free peptide in solution; BHI broth, 2 × 10^6 CFU/mL, 2-fold serial dilutions, overnight incubation, OD read-out; lowest concentration that completely inhibits growth; triplicate. As to the method:
as §1, §2

Values after ≈ are worked out from the molar mass of the structure shown. Square brackets hold non-standard residues; d marks the D form. Ends that are not written are not given here. Peptide text beside a SMILES is read from it. A value given as a limit tells only on which side of the number the result lay.

Take `CC[C@@H](C)[C@@H](NC(=O)CNC(=O)[C@@H](CCCCN)NC(=O)[C@@H](CC(C)C)NC(=O)[C@H](N)Cc1ccccc1)C(=O)N[C@@H](C(=O)NCC(=O)N[C@H](CCSC)C(=O)N[C@H](CC(C)C)C(=O)NCC(=O)N[C@H](CCCCN)C(=O)N[C@H](CC(C)C)C(=O)N[C@H](Cc1ccccc1)C(N)=O)C(C)C` [D-[K^3]SHa, D-[K^3]temporin-SHa] (H-[dF][dL][dK]G[dI][dV]G[dM][dL]G[dK][dL][dF]-NH2; N-terminus assumed): the MBC in assay [1] is listed as 3.12 µM (≈ 4.44 µg/mL). In assay [2], the MIC was found to be 1.56 µM (≈ 2.22 µg/mL).

Consider “FLKGIVGMLGKLF-NH2 [[K^3]SHa, [K^3]temporin-SHa]”, for which the MBC in assay [1] is listed as 3.12 µM. In assay [2], the minimum inhibitory concentration (MIC) was 1.56 µM.

Compound “FLSGIVGMLGKLF-NH2 [SHa, Temporin-SHa, reference compound]” gave a minimum bactericidal concentration (MBC) in assay [1] of 6 µM. Also, in assay [2], the MIC came to 6 µM.

For the compound “FAKGIAGMAGKLF [[A^2,6,9, K^3]SHa-COOH, [A^2,6,9, K^3]temporin-SHa-COOH]”, in assay [1], the MBC is 256 µM.

Regarding “FASGIAGMAGKLF-NH2 [[A^2,6,9]SHa, [A^2,6,9]temporin-SHa]”, the minimal bactericidal concentration (MBC) in assay [1] is on record as >200 µM.

The compound “FLKGIVGMLGKLF [[K^3]SHa-COOH, [K^3]temporin-SHa-COOH]” gave a minimal bactericidal concentration (MBC) in assay [1] of 128 µM. In addition, the MIC in assay [2] worked out at 64 µM. Turning to “FAKGIAGMAGKLF-NH2 [[A^2,6,9, K^3]SHa, [A^2,6,9, K^3]temporin-SHa]”, in assay [1], the MBC was >200 µM.
